Data set [1] in a line: In vitro digestion of gliadin peptides with gastric and pancreatic enzymes (PTCtCE). Format: in vitro ADME. The conditions noted are these: pH 7.04. As for the experimental part:
(§1) In vitro Digestion of Gliadin Peptides. The in vitro digestion of each peptide was performed as follows: 75 μM (final concentration) of peptide was combined with 32 μL of 0.03 M HCl, pepsin (1:100 w pepsin/w peptide) and water to give a volume of 104 μL. The reaction was carried out for 30 minutes at 37° C. and was stopped by the addition of 40 μL of 1M sodium phosphate/sodium bisphosphate (pH 7.04). Chymotrypsin (1:100 w/w), trypsin (1:100.7 w/w), elastase (1:200 w/w), and carboxypeptidase A (1:100 w/w) were then added to give a final reaction volume of 168 μL. The reaction mixture was incubated at 37° C. for the indicated time and then stopped by heating at 90° C. for 5 minutes. Alternatively, the peptide ([…]) was combined with rat intestinal brush border enzymes, where the final concentration of brush border aminopeptidase N was 100 μU/μL. The rat intestinal brush border was prepared as described (Ahnen et al., 1982) and the activity was measured by assaying continuously at 30° C. in 0.1 M Tris HCl, pH 8.0, containing 1 mM Leu-pNA [extinction coefficient at 410 nm (ε410)=8,800 M^−1/cm^−1] in 1% dimethyl sulfoxide to improve solubility. In some reactions prolyl endopeptidase was also added at a final concentration of 100 μU/μL. The reaction mixture was analyzed by reverse phase HPLC on a Vydac 218MS54 column (4.6 mm inner diameter×15 cm).
(§2) Digestive resistance of gliadin peptides and effect of PEP. The gliadin peptides P2-P8 (Table 1) were incubated with pepsin, trypsin, chymotrypsin, carboxypeptidase A, and elastase (PTCtCE) and purified rat intestinal brush border membranes (BBM) as previously detailed (Shan et al., 2002) to assess their resistance to digestion. […] Peptides P2, P3, P5 contain one or more epitopes from α-gliadin, whereas P7 and P8 carry γ-gliadin epitopes. P4 is believed to stimulate the innate immune system, and P6 has macrophage stimulating activity.

Data set [2] can be described thus: In vitro digestion of gliadin peptides with brush border membranes. Format: in vitro ADME, rat. As to the method: as §1, §2
Data set [3] is described as follows: In vitro digestion with brush border membranes supplemented with PEP. Type of data set: in vitro ADME. The conditions noted are these: rat, kidney or brush border membranes, BBM plus 100 μU/μL PEP, 37° C. As for the experimental part:
as §1, with “The rat intestinal brush border was prepared as described (Ahnen et al., 1982) and the activity was measured by assaying continuously at 30° C. in 0.1 M Tris HCl, pH 8.0, containing 1 mM Leu-pNA [extinction coefficient at 410 nm (ε410)=8,800 M^−1/cm^−1] in 1% dimethyl sulfoxide to improve solubility. In some reactions prolyl endopeptidase was also added at a final concentration of 100 μU/μL.” left out
Given the stability of gliadin peptides to intestinal peptidases and initial results indicating PEP is active against α-gliadin epitopes, the efficacy of in vitro digestion with PEP was examined. To quantify the incremental effect of PEP, we incubated the gliadin peptides with purified brush border membranes, supplemented with 100 μU/μL of PEP for 1 or 4 hours at 37° C.

Data set [4] deals with intact rat intestine co-perfused with prolyl endopeptidase (PEP). Type of data set: in vivo, Sprague-Dawley rats. The conditions noted are these: co-perfused with 50 μM P5; ~190 μU/μL; ca. 1:5 weight ratio PEP:P5. An excerpt: In vivo Rat Intestinal Perfusion. Our procedure for in vivo intestinal perfusion of peptides in rats was modified from the Smithson and Gray procedure as follows: Sprague-Dawley rats, 250-350 g were anesthetized with isoflurane, the abdomen opened, the ligament of Treitz (duodenal-jejunal junction) identified and polyethylene catheters [2.5 mm outer diameter×1 mm inner diameter] were installed with the proximal infusion catheter placed 5 cm beyond the ligament of Treitz and the collection catheter positioned 20 cm distally. Animal core temperature was monitored to be at 37° C. by rectal thermometer. Peptides for intra-intestinal perfusion were 1 mM GLGG, 0.1 mM P3, 0.1 mM P4, 0.1 mM P5, 0.1 mM P8, 0.1 mM P9, and 0.1 mM P10. […]
In a separate experiment, pepsin, trypsin and chymotrypsin digested gliadin (Sigma, St. Louis, Mo.) was perfused at 2 mg/mL along with 0.05 mM P5 and 41.7 […] PEP (˜190 μU/μL) to determine the effect of smaller, more accessible peptide fragments on P5 digestion. The perfusion effluent was collected, immediately frozen and subsequently analyzed by reverse phase HPLC on a Vydac 218MS54 column (4.6 mm inner diameter×15 cm). The rate of substrate disappearance for the peptides was calculated as previously detailed (Smithson and Gray, 1977). […]

Like-named read-outs stand apart in the source and are kept apart here. Ends that are not written are not given here.

On to FLQPQQPFPQQPQQPYPQQPQQPFPQ [Peptide P8], for which the metabolised at 4 h, 75 µM was 13% in data set [1] (75 μM peptide, 37° C., 4 hr, NR = no reaction, read-out: percentage of parent material digested, PTCtCE 4 hr); 19% in data set [2] (rat, kidney or brush border membranes, 75 μM peptide, aminopeptidase N 100 μU/μL, 4 hr, read-out: percentage of parent material digested, BBM 4 hr); more than 99% in data set [3] (4 hr, read-out: percentage of parent material digested, BBM + PEP 4 hr). In addition, the share remaining (in general, what is left of the initial amount, in per cent) at 4 h, 75 µM in data set [2] (rat, kidney or brush border membranes, 4 hours, read-out: starting material remaining after BBM exposure) is approximately 70%. Also, in data set [3] (1 hr, read-out: percentage of parent material digested, BBM + PEP 1 hr), the metabolised at 1 h, 75 µM is more than 99%.
As for QLQPFPQPQLPY [Peptide P2, QLQPFPQPQLPY], the metabolised at 4 h, 75 µM in data set [1] was 1%. In data set [2], this molecule gave a metabolised at 1 h, 75 µM of 71% and a metabolised at 4 h, 75 µM of 94%.
In data set [2], “LGQQQPFPPQQPYPQPQPF [Peptide P4, LGQQQPFPPQQPYPQPQPF]” gave a metabolised at 1 h, 75 µM of 77% and a metabolised at 4 h, 75 µM of 98%.
Turning to “VSFQQPQQQYPSSQ [Peptide P6, VSFQQPQQQYPSSQ]”, the metabolised at 4 h, 75 µM in data set [1] was determined as 48%; in data set [2], 99%. For the same molecule, the metabolised at 1 h, 75 µM in data set [2] amounted to 97%.
Take “LQLQPFPQPQLPYPQPQLPYPQPQLPYPQPQPF [Peptide P5]”: the results for the metabolised at 4 h, 75 µM in data set [1] and in data set [2] were 10% and 28%, respectively. In data set [2], the metabolised at 1 h, 75 µM came out at 20%. In data set [2] (rat, kidney or brush border membranes), this molecule yielded a share remaining at 4 h, 75 µM of approximately 70%.

B1: PEP: Flavobacterium meningosepticum prolyl endopeptidase, purchased or prepared from recombinant E. coli (protein, UniProt P27028 21-705, looked up)
Prolyl endopeptidase: QNSNVLKYPETKKVSHTDTYFGTQVSDPYRWLEDDRAEDTKAWVQQEVKFTQDYLAQIPFRDQLKKQLMDIWNYEKISAPFKKGKYTYFSKNDGLQAQSVLYRKDAAGKTEVFLDPNKFSEKGTTSLASVSFNKKGTLVAYSISEGGSDWNKIIILDAETKKQLDETLLDVKFSGISWLGDEGFFYSSYDKPKEGSVLSGMTDKHKVYFHKLGTKQSQDELIIGGDKFPRRYIGAYVTDDQRYLVVSAANATNGNELYIKDLKNKTDFIPIITGFDSNVNVADTDGDTLYLFTDKDAPNKRLVKTTIQNPKAETWKDVIAETSEPLEINTGGGYFFATYMKDAIDQVKQYDKNGKLVRAIKLPGSGNASGFGGEKTEKDLYYSFTNYITPPTIFKYNVTTGNSEVYQKPKVKFNPENYVSEQVFYTSSDGTKIPMMISYKKGLKKDGKNPTILYSYGGFNISLQPAFSVVNAIWMENGGIYAVPNIRGGGEYGKKWHDAGTKMQKKNVFNDFIAAGEYLQKNGYTSKEYMALSGRSNGGLLVGATMTMRPDLAKVAFPGVGVLDMLRYNKFTAGAGWAYDYGTAEDSKEMFEYLKSYSPVHNVKAGTCYPSTMVITSDHDDRVVPAHSFKFGSELQAKQSCKNPILIRIETNAGHGAGRSTEQVVAENADLLSFALYEMGIKSLK
Consider B1, for which the “amount of PEP required to eliminate P5 under the perfusion conditions” value in data set [4] was found to be 41.7 µg/mL.

The record behind these values is US7534426B2, “Glutenase enzyme assays” (The Board of Trustees of the Leland Stanford Junior …, priority 2004, dated 2009).
